Laboratory results taken from patent publication US8987213B2, “Peptides that selectively home to heart vasculature and related conjugates and methods” (Sanford-Burnham Medical Research Institute, priority 2004, dated 2015).
Entries after “also recorded” stand apart in the source; their conditions may differ. Where no end group is shown, it is not given here.

Legend:
[1] = target: T1, endothelin A-receptor (Homo sapiens, UniProt P25101); settings: cited from earlier work
T1 construct: host or cells: patients
T1 sequence (P25101 21-427): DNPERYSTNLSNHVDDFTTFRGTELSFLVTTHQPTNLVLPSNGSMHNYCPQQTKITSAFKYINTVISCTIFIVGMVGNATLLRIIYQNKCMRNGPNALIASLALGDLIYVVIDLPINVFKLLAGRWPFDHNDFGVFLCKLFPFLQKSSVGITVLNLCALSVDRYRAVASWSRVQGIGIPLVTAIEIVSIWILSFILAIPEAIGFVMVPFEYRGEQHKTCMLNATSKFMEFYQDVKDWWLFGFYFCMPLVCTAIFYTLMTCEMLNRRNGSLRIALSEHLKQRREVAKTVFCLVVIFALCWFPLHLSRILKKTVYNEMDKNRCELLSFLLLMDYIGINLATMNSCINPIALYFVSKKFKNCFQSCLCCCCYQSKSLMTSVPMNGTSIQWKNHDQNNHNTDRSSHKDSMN

[2] = system: heart vasculature; experiment: In vivo heart homing of individual phage-displayed peptides after intravenous injection; design: species or system mouse; settings: for selective homing to the heart (in words): peptide displayed on T7 phage, intravenous injection into mice
Method: The indicated peptides identified from a combined screen for heart endothelial homing were reconstituted in T7 phage and individually administered by intravenous injection into mice. […] The highest specificity (over 300-fold) was recorded for the CRPPR (SEQ ID NO: 1)-displaying phage. (A) CRPPR (SEQ ID NO: 1) phage homing to heart, kidney, brain, muscle and lung. (B) CARPAR (SEQ ID NO: 5) phage homing to heart, kidney, brain, muscle and lung. (C) CKRAVR (SEQ ID NO: 7) phage homing to heart, kidney, brain, muscle and lung. (D) CLIDLHVMC (SEQ ID NO: 10) phage homing to heart, kidney, brain, muscle and lung. (E) CRSTRANPC (SEQ ID NO: 11) phage homing to heart, kidney, brain, muscle and lung. (F) CPKTRRVPC (SEQ ID NO: 12) phage homing to heart, kidney, brain, muscle and lung.
In vivo panning was performed as follows. The ex vivo-selected phage pool (5×10^9 p.f.u.) was intravenously injected into mice through the tail vein and allowed to circulate for ten minutes before mice were carefully perfused through the left ventricle with DMEM in order to remove unbound intravascular phage. The heart and control tissues (brain, kidney, skin and muscle) were excised, and phage recovered as described in Hoffman et al., supra, 2004. Phage recovered from the heart were reinjected into mice, and the cycle was repeated for a total of three rounds. Non-recombinant phage were injected into a separate mouse as a control in each experiment.
Individual phage clones were reconstructed as follows. Oligonucleotides that encoded peptides from selected bait plasmids were synthesized, phosphorylated with T4 polynucleotide kinase (PNK; NEB) at 37° C. for one hour, and annealed at a concentration of 0.08 pmol/μl. The annealed inserts were diluted to 0.04 pmol/μl and ligated into T7Select 415-1 arms (Novagen) with T4 ligase overnight at 16° C. The next day, intact recombinant phage were prepared by mixing the ligation reaction with packaging extracts as described by the manufacturer. Inserts were confirmed by sequencing, and individual clones were amplified for ex vivo and in vivo testing as described in Example I above.

[3] = system: heart endothelia; experiment: Phage localization in tissues by anti-T7 immunostaining, co-injected with fluorescein-conjugated tomato lectin; assay type: in vivo, mouse; settings: peptide displayed on phage, injected intravenously with tomato lectin
Method: Further characterization was performed on the five most efficient homing peptides, as indicated by the fold-selectivity summarized in Table 1, and their putative receptors. These homing peptides were analyzed for the ability to selectively bind heart endothelia in vivo and for specific binding to their putative receptors, which also were analyzed for expression in heart endothelia. Each of the phage-displaying a particular homing peptide was individually injected intravenously into mice with fluorescein-conjugated tomato lectin, a blood vessel marker. […] None of the six phage were detected in tissues other than heart under the same conditions.
Immunohistochemistry was performed as follows. Rat monoclonal anti-mouse CD31 (1:100) was obtained from BD Pharmingen (San Jose, Calif.), and rabbit polyclonal anti-T7 phage (1:500), and chicken anti-mouse CRIP2 IgY (1:100) were obtained from GenWay (San Diego, Calif.). Secondary antibodies, AlexaFluor-488 goat anti-rat IgG (1:1000) and AlexaFluor-594 goat anti-rat or rabbit IgG (1:1000) were obtained from Molecular Probes (Eugene, Oreg.); the secondary antibody GAYFC-AlexaFluor 594 goat anti-IgY Fc (1:250) was obtained from GenWay. Frozen sections were preincubated with blocking buffer (5% normal goat serum and 0.5% BSA in 1×PBS) for one hour, washed three times with PBS, and incubated with the primary antibody of interest overnight at 4° C. After the overnight incubation, secondary antibodies were added and incubated for one hour at room temperature. Slides were washed three times with PBS and mounted in Vectashield Mounting Medium with DAPI (Vector Laboratories; Burlingame, Calif.). Blood vessels were additionally visualized by intravenous injection with Lycopersicon esculentum (tomato) lectin conjugated to fluorescein (100 μg in 200 μl of PBS) purchased from Vector Laboratories.

[4] = target: T2, Sigirr/TIR8 (Mus musculus, UniProt Q9JLZ8); experiment: Phage binding to receptor-transfected 293T cells and peptide competition; design: species or system murine; settings: free synthetic peptide 100 μg/ml
T2 construct: Full-length cDNAs were constructed for four of the putative heart homing receptors; expressed in transfected cells; host or cells: 293T cells, pMH6-derived plasmid
T2 sequence (Q9JLZ8 1-409): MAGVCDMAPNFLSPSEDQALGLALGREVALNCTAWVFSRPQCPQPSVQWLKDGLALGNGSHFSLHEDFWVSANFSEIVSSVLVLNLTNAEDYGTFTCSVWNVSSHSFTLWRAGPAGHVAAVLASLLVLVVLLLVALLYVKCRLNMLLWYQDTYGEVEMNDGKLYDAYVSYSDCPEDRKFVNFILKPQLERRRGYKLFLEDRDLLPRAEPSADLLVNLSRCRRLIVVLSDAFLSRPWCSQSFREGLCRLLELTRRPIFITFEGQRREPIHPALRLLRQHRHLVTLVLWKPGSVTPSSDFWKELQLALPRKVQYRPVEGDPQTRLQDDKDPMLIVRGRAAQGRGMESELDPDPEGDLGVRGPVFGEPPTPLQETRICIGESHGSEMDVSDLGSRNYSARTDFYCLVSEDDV
Method: (§1) Receptor transfections and phage binding assays were performed as follows. 293T cells were transfected with pMH6-derived plasmids (Roche Diagnostics; Indianapolis, Ind.) encoding HLP/CRIP2, Sigirr/TIR8, MpcII-3-related protein and bc10 using the Fugene transfection reagent (Roche Diagnostics). Briefly, 10 μg of plasmid was mixed with 700 μl of serum-free DMEM and 30 μl of Fugene transfection reagent and incubated for 15 minutes at room temperature before the mixture was added to cells. After forty-eight hours, cells were detached from culture dishes using EDTA and washed once with PBS. Phage displaying CRPPR (SEQ ID NO: 1), CKRAVR (SEQ ID NO: 7), CRSTRANPC (SEQ ID NO: 11) or CPKTRRVPC (SEQ ID NO: 12) and nonrecombinant control phage (1×10^9 p.f.u) were incubated with transfected cells for two hours at 4° C. Unbound phage were removed by five washes with 1% BSA in PBS. Bound phage were rescued by addition of bacteria; binding efficiencies were determined by plaque assay as described above.
(§2) Peptides for competition assays were synthesized at The Burnham Institute peptide facility using Fmoc chemistry in a solid-phase synthesizer prior to purification by HPLC and confirmation of their identity by mass spectrometry. Fluorescein-conjugated peptides were synthesized as described in Wender et al., Proc. Natl. Acad. Sci. USA 97:13003-13008 (2000). Competition assays were performed by addition of 100 μg peptide to the cells and phage, followed by incubation at 4° C. for two hours. After five washes with […], bound phage were rescued and quantitated by plaque assay.

[5] = target: T3, bc10 (Mus musculus, UniProt P62951); experiment: as above; design: species or system murine; settings: free synthetic peptide 100 μg/ml
T3 construct: Full-length cDNAs were constructed for four of the putative heart homing receptors; expressed in transfected cells; host or cells: 293T cells, pMH6-derived plasmid
T3 sequence (P62951 1-87): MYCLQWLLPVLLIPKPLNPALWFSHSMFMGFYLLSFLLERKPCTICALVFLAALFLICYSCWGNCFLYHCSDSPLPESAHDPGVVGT
Method: as §1, §2

[6] = target: T4, HLP/CRIP2 (Mus musculus, UniProt Q9DCT8); experiment: as above; design: species or system murine; settings: free synthetic peptide 100 μg/ml
T4 construct: Full-length cDNAs were constructed for four of the putative heart homing receptors; expressed in transfected cells; host or cells: 293T cells, pMH6-derived plasmid
T4 sequence (Q9DCT8 1-208): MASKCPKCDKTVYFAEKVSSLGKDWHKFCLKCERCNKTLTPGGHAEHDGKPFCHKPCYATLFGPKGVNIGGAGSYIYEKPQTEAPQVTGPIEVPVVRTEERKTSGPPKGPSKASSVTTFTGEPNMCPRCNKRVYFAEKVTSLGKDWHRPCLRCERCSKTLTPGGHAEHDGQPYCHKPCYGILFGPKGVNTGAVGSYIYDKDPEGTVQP
Method: as §1, §2

[7] = system: heart-derived cell suspensions; experiment: Competition of CRPPR-displaying phage binding to heart-derived cell suspensions; assay type: cell-based, murine; settings: various concentrations of antibody or free peptide
Method: CRPPR (SEQ ID NO: 1)-displaying phage were incubated with cell suspensions prepared from the heart; phage binding was measured in the presence and absence of various concentrations of the indicated antibodies or peptides. (A) A chicken anti-CRIP2 antibody blocked SEQ ID NO: 1-displaying phage binding to heart cells; normal IgY was used as the negative control. […] (C) In vivo homing of the CRPPR (SEQ ID NO: 1)-displaying phage to the heart was inhibited by co-injected anti-CRIP2 antibody. Shown are the mean and standard deviation from three separate experiments.
The specificity of CRPPR (SEQ ID NO: 1)-phage binding to heart vasculature was assayed using competition assays. […] As negative controls, two other heart-homing peptides had no effect on the CRPPR (SEQ ID NO: 1)-phage binding. Furthermore, co-injected anti-HLP/CRIP2 antibody inhibited in vivo homing of CRPPR (SEQ ID NO: 1)-phage (FIG. 7C).

[8] = target: T5, MpcII-3-related protein (Mus musculus, UniProt Q9CZB0); experiment: Phage binding to receptor-transfected 293T cells and peptide competition; design: species or system murine; settings: free synthetic peptide 100 μg/ml
T5 construct: Full-length cDNAs were constructed for four of the putative heart homing receptors; expressed in transfected cells; host or cells: 293T cells, pMH6-derived plasmid
T5 sequence (Q9CZB0 30-169): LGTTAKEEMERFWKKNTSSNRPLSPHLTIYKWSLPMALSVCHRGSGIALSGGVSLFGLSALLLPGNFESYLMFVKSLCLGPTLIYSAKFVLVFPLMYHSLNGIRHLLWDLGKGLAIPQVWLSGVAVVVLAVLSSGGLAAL
Method: as §1, §2

Compound | selective homing to the heart (in words) [2] | phage detection in tissues other than heart (anti-T7 antibody) [3] | phage localization in heart endothelia (anti-T7 antibody) [3] | also measured
Cc1cc2c(cc1CC(=O)c1sccc1S(=O)(=O)Nc1onc(C)c1Cl)OCO2 [TBC 11251] | – | – | – | clinical effect in patients with moderate to severe congestive heart failure [1]: significant improvement
CARPAR (displayed on phage) | exhibited selective homing to the heart | absent from other tissues | present in heart endothelia | –
CGNQVDSRC (displayed on T7 phage) | no significant selective homing | – | – | –
CKRAVR [on phage and as free peptide] | – | absent from other tissues | present in heart endothelia | inhibition of CKRAVR-phage binding to Sigirr/TIR8-transfected cells by free peptide [4]: inhibited
CLIDLHVMC (displayed on phage) [peptide identified with receptor clone 27; negative control phage] | no specific homing to the heart | – | absent from the heart | phage localization in heart endothelia (anti-T7 antibody) ([3]; listed as SEQ ID NO: 10): absent from the heart and other tissues
CPKRPR (displayed on phage) | exhibited selective homing to the heart | – | – | –
CPKTRRVPC [on phage and as free peptide] | – | absent from other tissues | present in heart endothelia | inhibition of CPKTRRVPC-phage binding to bc10-transfected cells by free peptide [5]: inhibited
CPSELLLP (displayed on phage) | did not | – | – | –
CRPPR (not fully specified) [tested on T7 phage, as free peptide and fluorescein-conjugated] | – | absent from other tissues | present in heart endothelia | phage homing to the lungs ([2]; peptide displayed on phage, lung tissue): little; inhibition of CRPPR-phage binding to HLP/CRIP2-transfected cells by free peptide [6]: inhibited; inhibition of CRPPR-displaying phage binding to heart-derived cell suspensions [7]: blocked; also recorded: Dose dependent inhibition
CRSTRANPC [on phage and as free peptide] | – | absent from other tissues | present in heart endothelia | inhibition of CRSTRANPC-phage binding to MpcII-3-related protein-transfected cells by free peptide [8]: inhibited
